In patent US20240091366A1, “NOVEL ACID-SENSITIVE APTAMER TRIPTOLIDE CONJUGATE AND APPLICATIONS” (priority 2022, published 2024):
“And” between values parts separate entries of the source, which are not always exact repeats. Equal values may be shown once.

How the values were obtained:
[1] = Body weight during administration, colon cancer model; details: mouse, in vivo
Method: (§1) Female nude mice were reared for 6-7 weeks under standard environment, colon cancer cells HCT116 were suspended in serum-free medium, and each mouse was inoculated with 5*10^6 tumor cells. When the tumor volume reached 50-100 mm^3, the mice were randomly divided into 4 groups, and were injected with aptamer triptolide conjugate, triptolide, and aptamer by tail vein, respectively, 12 mice in each group. A PBS negative control group was set up. […] The drugs were administered once every 2 days for 8 consecutive doses, and the experiment was ended 24 hours after the last dose. At the end of the experiment, the animals were executed by breaking the cervical vertebrae, and the tumors were stripped and weighed to calculate the tumor growth inhibition rate of the drug. The t-test was used to compare the tumor weight, tumor volume, RTV and other indexes of the animals in each group.

[2] = Body weight during administration, breast cancer model; details: mouse, in vivo
Method: as §1, with “Specific experimental protocol: Female” for “Female”, “breast” for “colon”, “MDA-MB-231” for “HCT116”, “6*10^6” for “5*10^6”

[3] = tested on: breast cancer cell line MDA-MB-231; assay: MTT assay, cell proliferation inhibition; assay type: cell-based; details: 48 h
Excerpt: (§2) Material: aptamer triptolide conjugate (AS1411-TP). Triptolide (TP) was provided by Shanghai Yaji Biotechnology Co. Ltd; aptamer (AS1411) was obtained from Chengdu Pilot Drug Development Co. Ltd; trypsin, thiazolyl blue (MTT) (Biofroxx, Germany); dimethyl sulfoxide (DMSO) (MP Biomedicals, France); fetal bovine serum (FBS) (Newzerum, New Zealand); DMEM medium, RPMI1640 medium, Petri dishes, 96-well plates (Corning, USA); colon cancer cells HCT116, breast cancer cells MDA-MB-231, non-small-cell lung cancer cells A549, pancreatic cancer cells PANC-1, and hepatocellular carcinoma cells HepG2 were purchased from the Shanghai Cell Bank of the Chinese Academy of Sciences and preserved in the laboratory.
(§3) Take the tumor cells HCT116, MDA-MB-231, A549, PANC-1 and HepG2 cell lines from the liquid nitrogen tank, place them in a 37° C. water bath, wait for the frozen cells to melt into cell suspension, centrifuge the cells at 1000 r/min for 3 min, discard the supernatant, add 1 ml of fresh complete medium containing 10% fetal bovine serum and 1% double antibody to mix the cells, then add 5 ml of medium, gently and repeatedly blowing the cells with a pipette gun to make them mix well. Then add 5 ml of medium, blow the cells gently and repeatedly with a pipette gun to mix them well, and finally transfer the cell suspension to a […] and label the cell name, cell number, date of resuscitation and the operator's name, and place it in a cell culture incubator for cultivation. (HCT116, PANC-1 and HepG2 cell lines were cultured in DMEM medium, while MDA-MB-231 cell line and A549 cell line were cultured in RPMI1640 medium).
(§4) Take HCT116, MDA-MB-231, A549, PANC-1, HepG2 cells with good growth status, remove the medium, add 1 ml of sterile PBS to wash, add 1.5 ml of trypsin to digest the cells, about 2 min later the cells become round and fall off, add 1.5 ml of medium to terminate the digestion, transfer it to centrifugal tube, centrifuge at 1000 r/min for 3 min, discard the supernatant, add 1 ml of fresh medium to resuspend, then add fresh medium for 1:3 distribution to other culture dishes, and label the date of transmission and the number of generations. Place in the cell culture incubator for cultivation.
(§5) Take HCT116, MDA-MB-231, A549, PANC-1, HepG2 cells with good growth status, by the same operation as the cell passaging experiment, after cell resuspension, cell counting with hemocyte counting plate, with 2500 cells/well, plant in 96-well plate, after 24 h of cell culture, remove the original medium, add medium containing different concentrations of drugs and continue to cultivate for 48 hours. After 24 h of cell culture, the original medium was removed and the medium containing different concentrations of drugs was added to continue the culture for 48 hours. […] The above steps were repeated three times.

[4] = tested on: lung adenocarcinoma cell line A549; assay: MTT assay, cell proliferation inhibition; assay type: cell-based; details: 48 h
Excerpt: as §2, §3, §4, §5

[5] = tested on: pancreatic cancer cell line PANC-1; assay: MTT assay, cell proliferation inhibition; assay type: cell-based; details: 48 h
Excerpt: as §2, §3, §4, §5

[6] = tested on: colon cancer cells HCT116; assay: In vivo antitumor activity, colon cancer xenograft in nude mice; parameters: species or system mouse; Tumor weight: unit not given here; details: HCT116 model, once every 2 days, 8 doses
Excerpt: The following are the in vivo activity studies conducted in different tumor-bearing mice:
A PBS negative control group was set up.

CC(C)[C@]12O[C@H]1[C@@H]1O[C@]13[C@]1(O[C@H]1C[C@H]1C4=C(CC[C@@]13C)C(=O)OC4)[C@@H]2O [TP, Triptolide]
body weights of mice [1]: basically maintained in the tolerable range of animal toxicity and side-effects | body weights of mice [2]: basically maintained in the tolerable range of animal toxicity and side-effects | inhibition at 0.0031 µM ([3]; Homo sapiens, MDA-MB-231, 48 h, MDA-MB-231, 3.1 nM, samples 1-3, read-out: cell proliferation inhibition rate): 14.6% | inhibition at 0.0063 µM ([3]; Homo sapiens, MDA-MB-231, 48 h, MDA-MB-231, 6.3 nM, samples 1-3, read-out: cell proliferation inhibition rate): 25.7% | inhibition at 0.0125 µM ([3]; Homo sapiens, MDA-MB-231, 48 h, MDA-MB-231, 12.5 nM, samples 1-3, read-out: cell proliferation inhibition rate): 31.7% | inhibition at 0.025 µM ([3]; Homo sapiens, MDA-MB-231, 48 h, MDA-MB-231, 25.0 nM, samples 1-3, read-out: cell proliferation inhibition rate): 42.1% | inhibition at 0.05 µM ([3]; Homo sapiens, MDA-MB-231, 48 h, MDA-MB-231, 50.0 nM, samples 1-3, read-out: cell proliferation inhibition rate): 71.5% | inhibition at 0.1 µM ([3]; Homo sapiens, MDA-MB-231, 48 h, MDA-MB-231, 100.0 nM, samples 1-3, read-out: cell proliferation inhibition rate): 83% | inhibition at 0.2 µM ([3]; Homo sapiens, MDA-MB-231, 48 h, MDA-MB-231, 200.0 nM, samples 1-3, read-out: cell proliferation inhibition rate): 98.1% | IC50 ([3]; Homo sapiens, breast cancer cells MDA-MB-231, MTT): 0.0224 ± 0.00024 µM | cell proliferation inhibition rate ([3]; MDA-MB-231, 3.1 nM, samples 1-3, 0.0031 µM): 11.4171 and 14.3285 | cell proliferation inhibition rate ([3]; MDA-MB-231, 6.3 nM, samples 1-3, 0.0063 µM): 23.5657 and 26.9811 | cell proliferation inhibition rate ([3]; MDA-MB-231, 12.5 nM, samples 1-3, 0.0125 µM): 36.7429 and 35.2571 | cell proliferation inhibition rate ([3]; MDA-MB-231, 25.0 nM, samples 1-3, 0.025 µM): 49.4400 and 45.9563 | cell proliferation inhibition rate ([3]; MDA-MB-231, 50.0 nM, samples 1-3, 0.05 µM): 73.2000 and 76.9811 | cell proliferation inhibition rate ([3]; MDA-MB-231, 100.0 nM, samples 1-3, 0.1 µM): 86.0800 and 88.6718 | cell proliferation inhibition rate ([3]; MDA-MB-231, 200.0 nM, samples 1-3, 0.2 µM): 94.2971 and 93.2186 | cell proliferation inhibition rate ([4]; A549, 6.3 nM, samples 1-3, 0.0063 µM): 16.7429 and 15.2571 | cell proliferation inhibition rate ([4]; A549, 12.5 nM, samples 1-3, 0.0125 µM): 29.4400 and 25.9563 | cell proliferation inhibition rate ([4]; A549, 25.0 nM, samples 1-3, 0.025 µM): 43.2000 and 46.9811 | cell proliferation inhibition rate ([4]; A549, 50.0 nM, samples 1-3, 0.05 µM): 66.0800 and 68.6718 | cell proliferation inhibition rate ([4]; A549, 100.0 nM, samples 1-3, 0.1 µM): 84.2971 and 83.2186 | cell proliferation inhibition rate ([4]; A549, 200.0 nM, samples 1-3, 0.2 µM): 97.0057 and 96.3263 | inhibition at 0.0063 µM ([4]; Homo sapiens, A549, 48 h, A549, 6.3 nM, samples 1-3, read-out: cell proliferation inhibition rate): 13.7% | inhibition at 0.0125 µM ([4]; Homo sapiens, A549, 48 h, A549, 12.5 nM, samples 1-3, read-out: cell proliferation inhibition rate): 22.1% | inhibition at 0.025 µM ([4]; Homo sapiens, A549, 48 h, A549, 25.0 nM, samples 1-3, read-out: cell proliferation inhibition rate): 41.5% | inhibition at 0.05 µM ([4]; Homo sapiens, A549, 48 h, A549, 50.0 nM, samples 1-3, read-out: cell proliferation inhibition rate): 63% | inhibition at 0.1 µM ([4]; Homo sapiens, A549, 48 h, A549, 100.0 nM, samples 1-3, read-out: cell proliferation inhibition rate): 80.1% | inhibition at 0.2 µM ([4]; Homo sapiens, A549, 48 h, A549, 200.0 nM, samples 1-3, read-out: cell proliferation inhibition rate): 99.2% | IC50 ([4]; Homo sapiens, lung adenocarcinoma cells A549, MTT): 0.03023 ± 0.00017 µM | inhibition at 0.0031 µM ([5]; Homo sapiens, PANC-1, 48 h, PANC-1, 3.1 nM, samples 1-3, read-out: cell proliferation inhibition rate): 31.2% | inhibition at 0.0063 µM ([5]; Homo sapiens, PANC-1, 48 h, PANC-1, 6.3 nM, samples 1-3, read-out: cell proliferation inhibition rate): 36% | inhibition at 0.0125 µM ([5]; Homo sapiens, PANC-1, 48 h, PANC-1, 12.5 nM, samples 1-3, read-out: cell proliferation inhibition rate): 49.2% | inhibition at 0.025 µM ([5]; Homo sapiens, PANC-1, 48 h, PANC-1, 25.0 nM, samples 1-3, read-out: cell proliferation inhibition rate): 59% | inhibition at 0.05 µM ([5]; Homo sapiens, PANC-1, 48 h, PANC-1, 50.0 nM, samples 1-3, read-out: cell proliferation inhibition rate): 64.8% | inhibition at 0.1 µM ([5]; Homo sapiens, PANC-1, 48 h, PANC-1, 100.0 nM, samples 1-3, read-out: cell proliferation inhibition rate): 80.3% | inhibition at 0.2 µM ([5]; Homo sapiens, PANC-1, 48 h, PANC-1, 200.0 nM, samples 1-3, read-out: cell proliferation inhibition rate): 93% | IC50 ([5]; Homo sapiens, pancreatic cancer cells PANC-1, MTT): 0.0144 ± 9e-05 µM | cell proliferation inhibition rate ([5]; PANC-1, 3.1 nM, samples 1-3, 0.0031 µM): 30.2815 and 32.0448 | cell proliferation inhibition rate ([5]; PANC-1, 6.3 nM, samples 1-3, 0.0063 µM): 37.1753 and 34.7338 | cell proliferation inhibition rate ([5]; PANC-1, 12.5 nM, samples 1-3, 0.0125 µM): 47.8196 and 50.5663 | cell proliferation inhibition rate ([5]; PANC-1, 25.0 nM, samples 1-3, 0.025 µM): 58.7555 and 59.2302 | cell proliferation inhibition rate ([5]; PANC-1, 50.0 nM, samples 1-3, 0.05 µM): 65.1441 and 74.5337 | cell proliferation inhibition rate ([5]; PANC-1, 100.0 nM, samples 1-3, 0.1 µM): 81.0105 and 79.6202 | cell proliferation inhibition rate ([5]; PANC-1, 200.0 nM, samples 1-3, 0.2 µM): 98.8589 and 97.2313 | RTV ([6]; 10 μM 100 μL tail vein): 23.31 ± 0.31 | T/C (%) ([6]; 10 μM 100 μL tail vein): 65.57% | Tumor inhibition rate (%) ([6]; 10 μM 100 μL tail vein): 25.80% | Tumor weight ([6]; 10 μM 100 μL tail vein): 2.31 ± 0.24 | RTV ([6]; 30 μM 100 μL tail vein): 16.68 ± 0.19 | T/C (%) ([6]; 30 μM 100 μL tail vein): 46.92% | Tumor inhibition rate (%) ([6]; 30 μM 100 μL tail vein): 45.16% | Tumor weight ([6]; 30 μM 100 μL tail vein): 1.76 ± 0.13 | RTV ([6]; 50 μM 100 μL tail vein): 10.09 ± 0.28 | T/C (%) ([6]; 50 μM 100 μL tail vein): 28.38% | Tumor inhibition rate (%) ([6]; 50 μM 100 μL tail vein): 64.51% | Tumor weight ([6]; 50 μM 100 μL tail vein): 1.11 ± 0.25
